From patent publication US12195457B2, “Aromatic ring derivative as immunoregulation and preparation method and application of aromatic ring derivative” (SHANGHAI JEMINCARE PHARMACEUTICALS CO., LTD, priority 2018, dated 2025)

Legend:
[1] = target: T1, S1P1 (Homo sapiens, UniProt P21453); test: S1P1 mediated inhibition of forskolin induced cAMP (PathHunter CHO-K1 EDG1 cells); format: cell-based
T1 construct: host or cells: CHO-K1
Experimental: The cell line used in the test was PathHunter® CHO-K1 EDG1 β-Arrestin Cell Line, supplier: DiscoverX, catalog number: 93-0207C2. The inhibitory effect of compounds on S1P1 mediated forskolin induced cAMP activity was evaluated.
Different concentrations of compounds and a final concentration of 0.6 μM forskolin were added to the test plate wells for each test, and the mixture was centrifuged at 1000 rpm for 10 seconds. A frozen cell was taken, washed twice with HBSS buffer and resuspended. 5000 cells were added to test plates per well, the mixture was shaked for 20 seconds, centrifuged at 1000 rpm for 10 seconds, and incubated at room temperature for 60 minutes. Anti-cAMP-Eu^2+-Cryptate and cAMP-d2 were added. Then the mixture was shaked for 20 seconds, centrifuged at 1000 rpm for 10 seconds, incubated at room temperature for 60 minutes, and the plate was read on an Envision plate reader. The data was analyzed by nonlinear regression to determine the EC50 of the compounds for the inhibition of cAMP induced by forskolin.

[2] = target: T1, S1P1; test: S1P1 mediated β-arrestin reporter activation (PathHunter CHO-K1 EDG1 β-Arrestin Cell Line); format: cell-based; conditions: 90 minutes incubation at 37° C.
Experimental: The cell line used in the test was PathHunter® CHO-K1 EDG1 β-Arrestin Cell Line, supplier: DiscoverX, catalog number: 93-0207C2. According to the supplier's instructions, the cells were added to the test plate according to 25 μL cell suspension containing 5000 cells per well, and cultured at 37° C. for 20 hours. Compounds of 10 concentrations diluted 4 times were added to the cell culture medium and incubated at 37° C. for 90 minutes. The detection solution was prepared, 12 μL per well, incubated at room temperature for 60 minutes, the plate was read on an Envision plate reader. The data was analyzed by nonlinear regression to determine the EC50 of β-arrestin activity.

[3] = target: T1, S1P1; test: S1P1 receptor internalization (FACS, CHO-K1 EDG1 cells); format: cell-based; conditions: 2 hours incubation; read-out: S1P1 internalized EC50
Experimental: 1. CHO-K1 DEG1 cells (PathHunter® CHO-K1 EDG1 β-Arrestin Cell Line, supplier: DiscoverX, catalog number: 93-0207C2), and culture medium was removed (F12 medium 1000 mL, 10% FBS, 800 μg/mL G418, 300 μg/mL Hygromycin, 1% Glutamax and 1% Pen/Strep), the cells were washed with 2 mL of DPBS, 5 mL of cell dispersion (Invitrogen-13151014) was added to disperse the cells, the cells were incubated in an incubator at 37° C. for 1-2 minutes. The flask was gently patted to make the cells fall off. 5 mL of growth medium was added, and pipette was gently blown to suspend the cells. Cell counting was performed using Vi-Cell. The mixture was centrifuged at 1000 rpm for 5 minutes at room temperature, the supernatant was gently poured out, and the cells in FACS buffer were resuspended to a concentration of 1.5e6 cells per mL. 2. S1P and compounds were diluted with DMSO in a 384-well plate, and a volume of 500 nL was transferred to a 96 V-well plate (Cat #Axygen-WIPP02280). 3. 50 μL of cells were added to a 96-well plate; 4. The 96-well plate was incubated in a 37° C. 5% CO2 incubator for 2 hours. 5. The cells were centrifuged at room temperature at 1500 rpm for 5 minutes to remove the supernatant. 6. 100 μL of FACS buffer was added to the resuspended cells, centrifuged at 1500 rpm for 5 minutes, and the supernatant was removed. 7. The anti-human S1P1/EDG-1-Alex647 (R&D-FAB1864R) and anti-IgG2B-Alex647 (R&D-IC0041R) antibodies were diluted 200 times with FACS buffer. 8. 50 μL of antibody was added to 96 wells, and the plates were transferred to 4° C. for 30 minutes. 9. The cells were centrifuged at room temperature at 1500 rpm for 5 minutes to remove the supernatant. 10. 100 μL of FACS buffer was added to the resuspended cells. 11. The cells were centrifuged at 4° C. at 1500 rpm for 5 minutes to remove the supernatant. 12. After washing, the cells were resuspended in 50 μL of FACS buffer per well. 13. Cell samples were read using iQue Screener PLUS-VBR.

[4] = In vivo pharmacokinetics in rats, intravenous injection and oral administration; parameters: species or system Sprague Dawley rats; conditions: rat; for AUC(0-inf) / clearance / half-life / Cmax: male, Sprague-Dawley, plasma
Experimental: In this experimental embodiment, in vivo pharmacokinetic evaluation was performed in rats by intravenous injection and oral administration.
Experimental methods and conditions: male Sprague Dawley rats were given the test compounds 1 mg/kg (solvent 5% DMSO/15% Solutol/80% Saline) by intravenous injection and 1 mg/kg (solvent 0.5% MC) by oral gavage respectively. 5 min, 15 min, 30 min, 1 hr, 2 hr, 4 hr, 6 hr, 8 hr, 24 hr after administration, blood was collected from submandibular vein, each sample was collected about 0.20 mL, and heparin sodium was used for anti coagulation. After collection, the sample was placed on ice, and the blood was centrifuged to be measured within one hour. Blood drug concentration in plasma was detected by liquid chromatography tandem mass spectrometry (LC/MS/MS), and the pharmacokinetic parameters were calculated by Phoenix WinNonlin software.

[5] = intravenous administration 1 mg/kg

T1 sequence (P21453 whole entry): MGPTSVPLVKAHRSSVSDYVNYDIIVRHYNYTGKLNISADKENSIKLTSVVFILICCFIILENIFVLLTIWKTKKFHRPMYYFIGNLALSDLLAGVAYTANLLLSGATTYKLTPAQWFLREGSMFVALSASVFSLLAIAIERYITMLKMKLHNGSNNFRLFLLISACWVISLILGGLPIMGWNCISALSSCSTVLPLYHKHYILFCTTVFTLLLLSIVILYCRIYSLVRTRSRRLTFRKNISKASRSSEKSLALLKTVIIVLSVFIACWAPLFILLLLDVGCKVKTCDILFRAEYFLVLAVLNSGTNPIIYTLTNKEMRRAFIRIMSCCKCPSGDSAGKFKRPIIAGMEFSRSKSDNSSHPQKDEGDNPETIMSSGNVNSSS

Structure (SMILES) | EC50 [1] [nM] | EC50 [2] [nM] | other results
O=C(O)CCc1[nH]c2ccc(OCc3ccc(C4=CCCC4)c(C(F)(F)F)c3)cc2c1Cl [Compound 21] | 0.035 | 2.26 | 
Cc1c(CCC(=O)O)[nH]c2ccc(OCc3ccc(OC4CCCC4)c(C(F)(F)F)c3)cc12 [Compound 38] |  | 1.11 | 
Cc1c(CCC(=O)O)[nH]c2ccc(OCc3ccc(C4CCOCC4)c(C(F)(F)F)c3)cc12 [Compound 35] | 0.34 | 0.88 | 
O=C(O)CCc1[nH]c2ccc(OCc3ccc(C4CCCC4)c(C(F)(F)F)c3)cc2c1F [Compound 14] | 0.07 | 1.86 | EC50 [3]: 0.14 nM; AUC(0-inf) [4, 5]: 10800 ng·h/mL; clearance [4, 5]: 1.55 mL/min/kg; half-life [4, 5]: 4.1 h; AUC(0-inf) ([4]; oral administration 1 mg/kg): 2340 ng·h/mL; Cmax ([4]; oral administration 1 mg/kg): 258 ng/mL; half-life ([4]; oral administration 1 mg/kg): 4 h; F ([4]; oral administration 1 mg/kg): 21.3%
O=C(O)CCc1nc2cc(OCc3ccc(C4CCCC4)c(C(F)(F)F)c3)ccc2[nH]1 [Compound 6] | 0.16 |  | 
O=C(O)CCc1cc2cc(OCc3ccc(C4CCCC4)c(C(F)(F)F)c3)ccc2[nH]1 [Compound 1] | < 0.05 | 0.95 | 
O=C(O)CCc1[nH]c2ccc(OCc3ccc(C4CCOCC4)c(C(F)(F)F)c3)cc2c1Cl [Compound 27] | 0.0021 | 1.03 | 
O=C(O)CCn1ccc2cc(OCc3ccc(C4CCCC4)c(C(F)(F)F)c3)ccc21 [Compound 12] | 0.65 | 1.96 | 
O=C(O)CCc1[nH]c2ccc(OCc3ccc(C4CCC4)c(C(F)(F)F)c3)cc2c1Cl [Compound 22] | 0.11 | 1.65 | 
O=C(O)CCc1[nH]c2ccc(OCc3cnc(C4CCCC4)c(C(F)(F)F)c3)cc2c1F [Compound 30] | 0.15 | 0.62 | 
O=C(O)CCc1cc2cc(OCc3cnc(C4CCCC4)c(C(F)(F)F)c3)ccc2[nH]1 [Compound 29] |  | 2.15 | 
Cc1c(CCC(=O)O)[nH]c2ccc(OCc3cnc(C4CCCC4)c(C(F)(F)F)c3)cc12 [Compound 40] |  | 1.18 | 
O=C(O)CCc1[nH]c2ccc(OCc3ccc(C4CCOC4)c(C(F)(F)F)c3)cc2c1Cl (centres unmarked) [Compound 26] | 0.0041 | 1.11 | 
O=C(O)CCc1[nH]c2ccc(OCc3ccc(OC4CCCC4)c(C(F)(F)F)c3)cc2c1Cl [Compound 24] | 0.0072 | 1.73 | 
O=C(O)CCc1[nH]c2ccc(OCc3ccc(C4CCCCC4)c(C(F)(F)F)c3)cc2c1Cl [Compound 23] | 0.032 | 3.82 | 
O=C(O)CCn1cnc2cc(OCc3ccc(C4CCCC4)c(C(F)(F)F)c3)ccc21 [Compound 4] | 0.5 |  | 
O=C(O)CCc1cc2cc(OCc3ccc(OC4CCCC4)c(C(F)(F)F)c3)ccc2[nH]1 [Compound 37] | 0.2 | 1.72 | 
O=C(O)CCc1cc2cc(OCc3ccc(C4CCCC4)c(C(F)(F)F)c3)c(F)cc2[nH]1 [Compound 18] | 0.08 | 1.1 | EC50 [3]: 0.69 nM
O=C(O)CCc1[nH]c2ccc(OCc3ccc(OC4CCCC4)c(C(F)(F)F)c3)cc2c1F [Compound 39] | 0.027 | 0.76 | 
Cc1c(CCC(=O)O)[nH]c2ccc(OCc3ccc(C4CCOC4)c(C(F)(F)F)c3)cc12 (centres unmarked) [Compound 32] | 0.56 | 1.47 | 
O=C(O)CCc1cc2cc(OCc3ccc(C4CCOC4)c(C(F)(F)F)c3)ccc2[nH]1 (centres unmarked) [Compound 31] | 0.18 | 2.63 | 
O=C(O)CCc1[nH]c2ccc(OCc3ccc(C4CCOCC4)c(C(F)(F)F)c3)cc2c1F [Compound 36] | 0.3 | 0.85 | 
O=C(O)CCc1cc2cc(OCc3ccc(C4CCOCC4)c(C(F)(F)F)c3)ccc2[nH]1 [Compound 34] |  | 5.35 | 
O=C(O)CCc1[nH]c2ccc(OCc3cnc(C4CCCC4)c(C(F)(F)F)c3)cc2c1Cl [Compound 25] | 0.0017 | 1.23 | 
O=C(O)CCc1cc2cc(OCc3ccc(N4CCCC4)c(C(F)(F)F)c3)ccc2[nH]1 [Compound 28] |  | 2.08 | 
O=C(O)C[C@H]1CCc2c1[nH]c1ccc(OCc3ccc(C4CCCC4)c(C(F)(F)F)c3)cc21 [APD334, reference compound] | 2.07 |  | EC50 [3]: 6.26 nM; AUC(0-inf) [4, 5]: 9410 ng·h/mL; clearance [4, 5]: 1.83 mL/min/kg; half-life [4, 5]: 5.2 h; AUC(0-inf) ([4]; oral administration 1 mg/kg): 4440 ng·h/mL; Cmax ([4]; oral administration 1 mg/kg): 341 ng/mL; half-life ([4]; oral administration 1 mg/kg): 5.5 h; F ([4]; oral administration 1 mg/kg): 46.3%
CCc1c(CCC(=O)O)[nH]c2ccc(OCc3ccc(C4CCCC4)c(C(F)(F)F)c3)cc12 [Compound 2] | 0.07 | 1.62 | EC50 [3]: 0.32 nM
O=C(O)CCc1[nH]c2ccc(OCc3ccc(C4CCOC4)c(C(F)(F)F)c3)cc2c1F (centres unmarked) [Compound 33] | 0.057 | 1.1 | 
N#Cc1c(CCC(=O)O)[nH]c2ccc(OCc3ccc(C4CCCC4)c(C(F)(F)F)c3)cc12 [Compound 17] | 0.21 | 1.78 | 
